Data reported in patent publication US11951098B2, “Therapeutic agent for meibomian dysfunction” (SANTEN PHARMACEUTICAL CO., LTD., priority 2013, dated 2024).

Assays:
[1] = system: HR-AD feed fed Hos: HR-1 series hairless mouse; assay: Test using HR-AD feed fed hairless mouse; type: in vivo, Hos: HR-1 series hairless mice; conditions: for Number of obstructive orifices: among eight orifices at centre of upper eyelid
Method: It has been known that a HR-AD feed is fed to Hos: HR-1 series hairless mouse, obstruction of the meibomian gland orifices similar to the signs/findings of MGD could be recognized (Japanese Patent Application No. 2012-137778). Thus, effects of sirolimus and deforolimus which are representative examples of the present compounds on the obstruction were investigated.
0.1% (w/v) sirolimus suspension: it was prepared by suspending in 0.01% (w/v) hydroxypropylmethyl cellulose.
0.1% (w/v) deforolimus suspension: it was prepared by suspending in 0.01% (w/v) hydroxypropylmethyl cellulose. Incidentally, deforolimus used in the present test was prepared according to the method described in JP 2005-516065A.
Six-weeks old male Hos: HR-1 series hairless mice were grouped into 5 mice of a normal feed fed group (CRF-1 feed, available from Oriental Yeast Co., Ltd.) and 15 mice of a HR-AD feed fed group (available from Nosan Corporation), and fed the normal feed or the HR-AD feed, respectively, which were spontaneously taken. After 28th day from initiation of the feeding, the meibomian gland orifices were observed by using a slit lamp, and a number of obstructive orifices among the eight meibomian gland orifices at the center of the upper eyelid was measured. Incidentally, the presence or absence of obstruction of the meibomian gland orifices was judged by the state whether the meibomian gland orifices were in a turbid and raised or not (see JP 2014-023526A).
Fifteen mice of the HR-AD feed fed group were grouped into a physiological saline solution-administered group, a 0.1% sirolimus suspension-administered group and a 0.1% deforolimus suspension-administered group (5 mice in each group), and from 29th day from initiation of the feeding, the physiological saline solution (2 μL/eye, twice a day), the 0.1% sirolimus suspension (2 μL/eye, twice a day) or the 0.1% (w/v) deforolimus suspension (2 μL/eye, twice a day) were dropped to the eye for 28 days. At 42nd day and 56th day after initiation of the feeding, a number of obstructions of the meibomian gland orifices was measured by using a slit lamp.

[2] = system: complete Freund's adjuvant administered rabbit; assay: Test using complete Freund's adjuvant administered rabbit; type: in vivo, Japanese white rabbits; conditions: average; for Score of telangiectasia: right upper eyelid, sum of three fractions
Method: In a complete Freund's adjuvant administered rabbit, telangiectasia around the meibomian gland orifices, and obstruction at the meibomian gland orifices, which are similar to the signs/findings of MGD can be recognized. Effects of sirolimus which was a representative example of the present compound on the telangiectasia and obstruction were investigated (see JP 2014-024835A).
0.1% (w/v) sirolimus suspension: it was prepared by suspending in 0.01% (w/v) hydroxypropylmethyl cellulose. Incidentally, with regard to sirolimus, that purchased from LKT Laboratories, Inc., (Catalog number: R0161) was used (which is the same in the following Examples).
10 μL of the complete Freund's adjuvant was administered to the right upper eyelid (3 portions) of about 2 kg of male Japanese white rabbits, respectively. After 4 days from provocation, around the meibomian gland orifices of the right upper eyelid was observed by using slit lamp, a score of telangiectasia and a score of obstruction at the meibomian gland orifices were judged.
Incidentally, with regard to the score of telangiectasia, in accordance with the criteria in the following Tables 1 and 2, the eyelid margin of the upper eyelid was equally divided to three fractions of the ear side, the center portion and the nose side, the score of telangiectasia around the meibomian gland orifices was judged with regard to the respective fractions, and the sum of the scores of the three fractions was calculated as a score per one eye. Here, the presence or absence of dilation of the capillaries was judged by the state whether the capillaries which cannot be usually recognized with naked eyes can be recognized or not as a result of dilation of the diameter of the blood vessel. Also, the presence or absence of obstruction of the meibomian gland orifices was judged by the state whether the meibomian gland orifices are in a turbid or not.
The rabbits were grouped into a physiological saline solution-administered group and a 0.1% sirolimus suspension-administered group, and tested with 7 or 8 eyes in each group so that fluctuation of the average value of the respective scores became small. After 5th day from provocation, a physiological saline solution (50 μL/eye, twice a day) or a 0.1% sirolimus suspension (50 μL/eye, twice a day) was dropped into the right eye for 10 days. After 11th and 15th days from provocation, around the meibomian gland orifices of the right upper eyelid was observed by using a slit lamp, whereby the score of telangiectasia was judged and the number of the obstructive orifices was measured.

[3] = 42nd day after initiation of the feeding, 0.1% (w/v) suspension 2 μL/eye twice a day from 29th day
[4] = 56th day after initiation of the feeding, 0.1% (w/v) suspension 2 μL/eye twice a day for 28 days
[5] = 11th day after provocation, 0.1% (w/v) suspension 50 μL/eye twice a day from 5th day
[6] = 15th day after provocation, 0.1% (w/v) suspension 50 μL/eye twice a day for 10 days

CO[C@H]1C[C@@H]2CC[C@@H](C)[C@@](O)(O2)C(=O)C(=O)N2CCCC[C@H]2C(=O)O[C@H]([C@H](C)C[C@@H]2CC[C@@H](OP(C)(C)=O)[C@H](OC)C2)CC(=O)[C@H](C)/C=C(\C)[C@@H](O)[C@@H](OC)C(=O)[C@H](C)C[C@H](C)/C=C/C=C/C=C/1C [0.1% Deforolimus suspension, deforolimus]
Effect on number of the obstructions of the meibomian gland orifices (in words) ([1]; 0.1% suspension instilled, versus physiological saline group): decreased
Number of obstructive orifices [1, 3]: 2.7
Number of obstructive orifices [1, 4]: 2.2

CO[C@H]1C[C@@H]2CC[C@@H](C)[C@@](O)(O2)C(=O)C(=O)N2CCCC[C@H]2C(=O)O[C@H]([C@H](C)C[C@@H]2CC[C@@H](O)[C@H](OC)C2)CC(=O)[C@H](C)/C=C(\C)[C@@H](O)[C@@H](OC)C(=O)[C@H](C)C[C@H](C)/C=C/C=C/C=C/1C [0.1% Sirolimus suspension, sirolimus]
Number of obstructive orifices [1, 3]: 0.7
Number of obstructive orifices [1, 4]: 0.0
Score of obstruction of orifices [2, 5]: 2.3
Score of telangiectasia [2, 5]: 2.1
Score of obstruction of orifices [2, 6]: 1.3
Score of telangiectasia [2, 6]: 2.1
